# According to patent publication US8680052B1, “Methods of treating, reducing the incidence of, and/or preventing ischemic events” (The Medicines Company, priority 2013, dated 2014):
# Where two headings read alike, the source gives them in different places.
# Assays:
# [1] = tested on: patients undergoing percutaneous coronary intervention (PCI); details: for Angiographic complications (site reported): Abrupt vessel closure / Angiographic complications (site reported): Acute stent thrombosis / Angiographic complications (site reported): Need for urgent CABG / Angiographic complications (site reported): New thrombus or suspected thrombus / Angiographic complications (site reported): Threatened abrupt closure / Angiographic complications (site reported): Unsuccessful procedure: index PCI
# Description: The diagnosis of non-ST-segment elevation myocardial infarction required troponin I or T greater than the upper limit of normal within 24 hours of randomization (or if troponin results were unavailable at that time, creatine kinase-myocardial band isoenzyme [CK-MB] greater than the upper limit of normal). The diagnosis of unstable angina required ischemic chest discomfort occurring at rest and lasting ≧10 minutes within the 24 hours prior to randomization and dynamic electrocardiographic changes; age ≧65 years and/or diabetes mellitus were also required.
# The primary efficacy endpoint was the composite of mortality, myocardial infarction, or ischemia-driven revascularization at 48 hours. The primary analysis was performed on a modified intent-to-treat population. Confirmatory analyses were performed on an intent-to-treat population. Secondary endpoints included the individual rates of mortality, myocardial infarction, new Q-wave myocardial infarction, ischemia-driven revascularization, abrupt vessel closure, or stroke at 48 hours. Mortality at 30 days and 1 year was also recorded. The clinical events committee adjudicated myocardial infarction, Q-wave myocardial infarction, ischemia-driven revascularization, stent thromboses, and stroke (ischemic or hemorrhagic). The definition of stent thrombosis was similar to the Academic Research Consortium definition of definite stent thrombosis. After review of the prespecified analyses, two exploratory endpoints less reliant on periprocedural biomarker ascertainment were examined. The exploratory endpoints, which were composed of prespecified and adjudicated endpoints, were the composite of mortality, Q-wave myocardial infarction, or ischemia-driven revascularization and the composite of mortality, Q-wave myocardial infarction, or stent thrombosis. Bleeding and adverse events through 48 hours were compared.
# All efficacy analyses were performed on the modified intent-to-treat population, defined as all randomized patients who received at least one dose of study drug and underwent the index PCI. All safety-related analyses were performed on the safety population, which included all patients who received at least one dose of assigned study drug. Patients in the safety analyses were assigned to a treatment arm based on treatment actually received, not as randomized. Intent-to-treat analyses are also presented for full disclosure of results. All statistical tests were two-tailed using a level of significance of 0.05. […] Logistic regression was also used to analyze the majority of the remaining secondary endpoints.
# [2] = tested on: patients with acute coronary syndromes undergoing PCI; assay: Example 2: bleeding (GUSTO, TIMI, ACUITY) and adverse events up to 48 hours; format: in vivo, human
# Source text: Multiple definitions of bleeding were used for full disclosure of bleeding risks associated with cangrelor: […] N Engl J Med 329:673-82 (1993); mild, moderate, or severe/life-threatening based on transfusion use and presence/absence of hemodynamic compromise); […] Investigators reported adverse and serious adverse events according to International Conference on Harmonization guidance (International Conference on Harmonization (ICH) Guidance Documents. U.S. Food and Drug Administration Web site. (Accessed on Oct. 8, 2009, at the FDA website beginning with “www.” and ending with “fda.gov/RegulatoryInformation/Guidances/ucm122049.htm”)).
# [3] = 48-hour, Safety population, cangrelor vs comparator arm
# [4] = 48-hour, Safety population, exploratory
smiles,measurement,setting,value
"CSCCNc1nc(SCCC(F)(F)F)nc2c1ncn2[C@@H]1O[C@H](COP(=O)(O)OP(=O)(O)C(Cl)(Cl)P(=O)(O)O)[C@@H](O)[C@H]1O [Cangrelor, cangrelor]",OR (95% CI): All-cause mortality,[1]; [3],"0.385 (0.161, 0.924)"
same,OR (95% CI): IDR,[1]; [3],"0.754 (0.414, 1.373)"
same,OR (95% CI): MI,[1]; [3],"0.901 (0.729, 1.113)"
same,OR (95% CI): Mortality/MI/IDR,[1]; [3],"0.858 (0.699, 1.053)"
same,OR (95% CI): Mortality/Q-wave MI/IDR,[1]; [3],"0.564 (0.341, 0.935)"
same,OR (95% CI): Mortality/Q-wave MI/Stent thrombosis,[1]; [3],"0.395 (0.212, 0.735)"
same,OR (95% CI): Q-wave MI,[1]; [3],"0.441 (0.136, 1.435)"
same,OR (95% CI): Stent thrombosis,[1]; [3],"0.310 (0.113, 0.846)"
same,OR (95% CI): Stroke,[1]; [3],"1.394 (0.442, 4.396)"
same,Mortality/Q-wave MI/IDR,[1]; [4],24 (0.9) no. (%)
same,Mortality/Q-wave MI/Stent thrombosis,[1]; [4],14 (0.5) no. (%)
same,All-cause mortality,"[1]; 48-hour, safety population",7 (0.3) no. (%)
same,IDR,"[1]; 48-hour, safety population",19 (0.7) no. (%)
same,MI,"[1]; 48-hour, safety population",176 (6.6) no. (%)
same,Mortality/MI/IDR,"[1]; 48-hour, safety population",185 (7.0) no. (%)
same,Q-wave MI,"[1]; 48-hour, safety population",4 (0.2) no. (%)
same,Stent thrombosis,"[1]; 48-hour, safety population",5 (0.2) no. (%)
same,Stroke,"[1]; 48-hour, safety population",7 (0.3) no. (%)
same,Rates of stent thrombosis,[1]; 48 hours,0.2%
same,rate of mortality at 48 hours,[1]; 48 hours,0.2%
same,"primary endpoint (mortality, myocardial infarction, or ischemia-driven revascularization), patients with event","[1]; 48 hours, MITT",7.0%
same,Angiographic complications (site reported): Abrupt vessel closure,[1]; ITT,13 (0.5)
same,Angiographic complications (site reported): Acute stent thrombosis,[1]; ITT,1 (0.0)
same,Angiographic complications (site reported): Need for urgent CABG,[1]; ITT,5 (0.2)
same,Angiographic complications (site reported): New thrombus or suspected thrombus,[1]; ITT,14 (0.5)
same,Angiographic complications (site reported): Threatened abrupt closure,[1]; ITT,10 (0.4)
same,Angiographic complications (site reported): Unsuccessful procedure,[1]; ITT,84 (3.1)
same,Angiographic complications (site reported): Abrupt vessel closure,[1]; MITT,13 (0.5)
same,Angiographic complications (site reported): Acute stent thrombosis,[1]; MITT,1 (0.0)
same,Angiographic complications (site reported): Need for urgent CABG,[1]; MITT,5 (0.2)
same,Angiographic complications (site reported): New thrombus or suspected thrombus,[1]; MITT,14 (0.5)
same,Angiographic complications (site reported): Threatened abrupt closure,[1]; MITT,10 (0.4)
same,Angiographic complications (site reported): Unsuccessful procedure,[1]; MITT,81 (3.1)
same,Angiographic complications (site reported): Abrupt vessel closure,[1]; Safety population,13 (0.5)
same,Angiographic complications (site reported): Acute stent thrombosis,[1]; Safety population,1 (0.0)
same,Angiographic complications (site reported): Need for urgent CABG,[1]; Safety population,5 (0.2)
same,Angiographic complications (site reported): New thrombus or suspected thrombus,[1]; Safety population,14 (0.5)
same,Angiographic complications (site reported): Threatened abrupt closure,[1]; Safety population,10 (0.4)
same,Angiographic complications (site reported): Unsuccessful procedure,[1]; Safety population,81 (3.1)
same,primary efficacy endpoint,[1]; subgroup of 1659 patients without baseline troponin elevation,4.6%
same,"OR, primary efficacy endpoint","[1]; subgroup of 1659 patients without baseline troponin elevation, cangrelor vs placebo",0.62
same,OR (95% CI): Hematoma ≧5 cm at puncture site,"[2]; 48-hour, safety population, cangrelor vs clopidogrel","1.12 (0.82, 1.53)"
same,ACUITY criteria Major bleeding,"[2]; human, in vivo, 48 h",158 (3.6) no. (%)
same,ACUITY criteria Minor bleeding,"[2]; human, in vivo, 48 h",768 (17.6) no. (%)
same,Access site bleeding requiring radiologic or surgical intervention,"[2]; human, in vivo, 48 h",6 (0.1) no. (%)
same,Any blood transfusion,"[2]; human, in vivo, 48 h",46 (1.1) no. (%)
same,Any platelet transfusion,"[2]; human, in vivo, 48 h",6 (0.1) no. (%)
same,Drop in hemoglobin and/or hematocrit,"[2]; human, in vivo, 48 h",91 (2.1) no. (%)
same,Dyspnea,"[2]; human, in vivo, 48 h",1.0%
same,Ecchymosis,"[2]; human, in vivo, 48 h",284 (6.5) no. (%)
same,Epistaxis,"[2]; human, in vivo, 48 h",9 (0.2) no. (%)
same,GUSTO criteria Mild bleeding,"[2]; human, in vivo, 48 h",858 (19.6) no. (%)
same,GUSTO criteria Moderate bleeding,"[2]; human, in vivo, 48 h",41 (0.9) no. (%)
same,GUSTO criteria Severe/life-threatening bleeding,"[2]; human, in vivo, 48 h",10 (0.2) no. (%)
same,Hematoma <5 cm at puncture site,"[2]; human, in vivo, 48 h",251 (5.7) no. (%)
same,Hematoma ≧5 cm at puncture site,"[2]; human, in vivo, 48 h",85 (1.9) no. (%)
same,Hemodynamic compromise,"[2]; human, in vivo, 48 h",9 (0.2) no. (%)
same,Intracranial hemorrhage,"[2]; human, in vivo, 48 h",1 (0.0) no. (%)
same,Intraocular,"[2]; human, in vivo, 48 h",2 (0.0) no. (%)
same,OR (95% CI): ACUITY criteria Major bleeding,"[2]; human, in vivo, 48 h","1.26 (0.99, 1.60)"
same,OR (95% CI): ACUITY criteria Minor bleeding,"[2]; human, in vivo, 48 h","1.19 (1.06, 1.33)"
same,OR (95% CI): Access site bleeding requiring radiologic or surgical intervention,"[2]; human, in vivo, 48 h","0.60 (0.22, 1.65)"
same,OR (95% CI): Any blood transfusion,"[2]; human, in vivo, 48 h","1.09 (0.72, 1.67)"
same,OR (95% CI): Any platelet transfusion,"[2]; human, in vivo, 48 h","1.20 (0.37, 3.93)"
same,OR (95% CI): Drop in hemoglobin and/or hematocrit,"[2]; human, in vivo, 48 h","1.45 (1.05, 2.01)"
same,OR (95% CI): Ecchymosis,"[2]; human, in vivo, 48 h","1.23 (1.03, 1.47)"
same,OR (95% CI): Epistaxis,"[2]; human, in vivo, 48 h","0.41 (0.19, 0.89)"
same,OR (95% CI): GUSTO criteria Mild bleeding,"[2]; human, in vivo, 48 h","1.20 (1.07, 1.34)"
same,OR (95% CI): GUSTO criteria Moderate bleeding,"[2]; human, in vivo, 48 h","1.21 (0.76, 1.90)"
same,OR (95% CI): GUSTO criteria Severe/life-threatening bleeding,"[2]; human, in vivo, 48 h","0.91 (0.39, 2.14)"
same,OR (95% CI): Hematoma <5 cm at puncture site,"[2]; human, in vivo, 48 h","1.14 (0.94, 1.37)"
same,OR (95% CI): Hemodynamic compromise,"[2]; human, in vivo, 48 h","0.82 (0.34, 1.97)"
same,OR (95% CI): Oozing at puncture site,"[2]; human, in vivo, 48 h","1.28 (1.10, 1.49)"
same,OR (95% CI): Reoperation for bleeding,"[2]; human, in vivo, 48 h","1.00 (0.06, 15.96)"
same,OR (95% CI): Retroperitoneal,"[2]; human, in vivo, 48 h","1.50 (0.67, 3.34)"
same,OR (95% CI): TIMI criteria Major bleeding,"[2]; human, in vivo, 48 h","1.36 (0.68, 2.71)"
same,OR (95% CI): TIMI criteria Minor bleeding,"[2]; human, in vivo, 48 h","1.39 (0.84, 2.30)"
same,OR (95% CI): Thrombocytopenia,"[2]; human, in vivo, 48 h","0.86 (0.29, 2.55)"
same,Oozing at puncture site,"[2]; human, in vivo, 48 h",400 (9.1) no. (%)
same,Reoperation for bleeding,"[2]; human, in vivo, 48 h",1 (0.0) no. (%)
same,Reported adverse events,"[2]; human, in vivo, 48 h",26.4%
same,Retroperitoneal,"[2]; human, in vivo, 48 h",15 (0.3) no. (%)
same,Serious adverse events,"[2]; human, in vivo, 48 h",2.7%
same,TIMI criteria Major bleeding,"[2]; human, in vivo, 48 h",19 (0.4) no. (%)
same,TIMI criteria Minor bleeding,"[2]; human, in vivo, 48 h",36 (0.8) no. (%)
same,Thrombocytopenia,"[2]; human, in vivo, 48 h",6 (0.1) no. (%)
same,discontinuation of study drug due to an adverse event,"[2]; human, in vivo, 48 h",0.5%
